Patent publication US20240327393A1 (SIRONAX LTD., priority 2021, published 2024)

What follows are compounds tested on HT-1080 (ATCC, CCL-121) cells (assay: HT-1080 cell viability assay with ferroptosis inducer RSL3 (Cell Titer-Glo)). Details: Homo sapiens; HT-1080 cells treated with RSL3; 3-fold, 10-point dilution, 1.1 μM highest concentration; Table 2; read-out: EC50 (nM), ferroptosis inhibitory activity.
Assay type: cell-based
Protocol: Example 2. Determination of EC50 Values in HT-1080 Cell Viability Assay
HT-1080 (ATCC, CCL-121) cells (6000 in 100 μl) were seeded in 96-well plates (Corning) and cultured in a 37° C. incubator with a humidified atmosphere of 5% CO2 for overnight. Cells were then treated with ferroptosis inducer RSL3 (TargetMol) and a 3-fold, 10-point serial dilution series of compounds with 1.1 μM as the highest concentration, […]. Cell viability was assessed using the Cell Titer-Glo Kit (Promega). The luminescence intensity was measured with a microplate reader (Envision, PerkinElmer), and cell viability was calculated by normalizing the data to untreated controls. The EC50 values of the compounds (e.g., Compounds 1-659) were calculated in GraphPad Prism (GraphPad Software, Inc., San Diego, CA, USA). The curves were fitted using a non-linear regression model with a sigmoidal dose response.

How did the EC50 turn out when `CCN(CC)c1ccc(Nc2ccc3c(c2)n(C)c(=O)n3C)cc1` [Compound 268, 5-((4-(diethylamino)phenyl)amino)-1,3-dimethyl-1,3-dihydro-2H-benzo[d]imidazol-2-one] was run?
The EC50 was 0.1 to 100 nM.

`CCN1C(=O)COc2cc(Nc3ccc(N4CCC(C(F)(F)F)CC4)cc3)ccc21` [Compound 16, 4-ethyl-7-((4-(4-(trifluoromethyl)piperidin-1-yl)phenyl)amino)-2H-benzo[b][1,4]oxazin-3(4H)-one] was tested. Which EC50 did it give?
The EC50 was 0.1 to 100 nM.

For `CN1C(=O)COc2cc(Nc3ccc(F)c(N4CCC(C(F)(F)F)CC4)c3)ccc21` [Compound 33, 7-((4-fluoro-3-(4-(trifluoromethyl)piperidin-1-yl)phenyl)amino)-4-methyl-2H-benzo[b][1,4]oxazin-3(4H)-one], which EC50 is on record?
The EC50 was 0.1 to 100 nM.

How did the EC50 turn out when `CC1CN(c2ccc(Nc3ccc4c(c3)ncn4C)cc2)CC(C)O1` (stereo not shown) [Compound 434, N-(4-(2,6-dimethylmorpholino)phenyl)-1-methyl-1H-benzo[d]imidazol-5-amine] was run?
Its EC50 is 0.1 to 100 nM.

For `CN1CCN(CC(=O)N2Cc3ccc(Nc4ccc(N5CCC(C(F)(F)F)CC5)c(F)c4)cc3C2)CC1` [Compound 164], which EC50 is on record?
Its EC50 is 0.1 to 100 nM.

For `CC(=O)N1Cc2ccc(Nc3ccc(N4CCC(C(F)(F)F)CC4)cc3)cc2C1` [Compound 186, 1-(5-((4-(4-(trifluoromethyl)piperidin-1-yl)phenyl)amino)isoindolin-2-yl) ethan-1-one], which EC50 is on record?
The EC50 was 0.1 to 100 nM.

`CC1CCN(c2ccc(Nc3ccc4c(=O)n(C)[nH]c4c3)cc2)CC1` [Compound 251, 2-methyl-6-((4-(4-methylpiperidin-1-yl)phenyl)amino)-1,2-dihydro-3H-ind azol-3-one] was tested. Which EC50 did it give?
Its EC50 is 0.1 to 100 nM.

`CN1C(=O)C(C)(C)c2cc(Nc3ccc(N4CCC(C(F)(F)F)CC4)cc3)ccc21` [Compound 293, 1,3,3-trimethyl-5-((4-(4-(trifluoromethyl)piperidin-1-yl)phenyl)amino)indolin-2-one] was tested. Which EC50 did it give?
Its EC50 is 0.1 to 100 nM.

How did the EC50 turn out when `FC1(F)CCN(c2ccc(Nc3ccc4c(c3)CNC4)cc2)CC1` [Compound 165, N-(4-(4,4-difluoropiperidin-1-yl)phenyl)isoindolin-5-amine] was run?
Its EC50 is 0.1 to 100 nM.

How did the EC50 turn out when `CC1CN(c2ccc(Nc3ccc4c(c3)nc(N)n4C)cc2)CC(C)O1` (stereo not shown) [Compound 435] was run?
The EC50 was 0.1 to 100 nM.

Which EC50 does the source give for `CCCCCN(CC)c1ccc(Nc2ccc3c(c2)n(C)c(=O)n3C)cc1` [Compound 260, 5-((4-(ethyl(pentyl)amino)phenyl)amino)-1,3-dimethyl-1,3-dihydro-2H-benzo[d]imidazol-2-one] here?
The EC50 was 0.1 to 100 nM.

With `Cc1c(N2CCC(C)CC2)ccc(Nc2ccc3c(c2)n(C)c(=O)n3C)c1F` [Compound 263, 5-((2-fluoro-3-methyl-4-(4-methylpiperidin-1-yl)phenyl)amino)-1,3-dimethyl-1,3-dihydro-2H-benzo[d]imidazol-2-one] as the compound, how does the EC50 read?
The EC50 was 0.1 to 100 nM.

`CC1CN(c2ccc(Nc3cnc4c(c3)OCC(=O)N4C)cc2)CC(C)O1` (stereo not shown) [Compound 76, 7-((4-(2,6-dimethylmorpholino)phenyl)amino)-4-methyl-2H-pyrido[3,2-b][1,4]oxazin-3(4H)-one] was tested. Which EC50 did it give?
The EC50 was 0.1 to 100 nM.

`Cc1cc(N2CCC(O)(C(F)(F)F)CC2)ccc1Nc1ccc2c(c1)OCC(=O)N2C` [Compound 130, 7-((4-(4-hydroxy-4-(trifluoromethyl)piperidin-1-yl)-2-methylphenyl)amino)-4-methyl-2H-benzo[b][1,4]oxazin-3(4H)-one] was tested. Which EC50 did it give?
Its EC50 is 0.1 to 100 nM.

With `CN1CCc2cc(Nc3ccc4c(c3)n(C)c(=O)n4C)ccc21` [Compound 289, 1,3-dimethyl-5-((1-methylindolin-5-yl)amino)-1,3-dihydro-2H-benzo[d]imidazol-2-one] as the compound, how does the EC50 read?
Its EC50 is 0.1 to 100 nM.

`CC1CCN(c2ccc(Nc3ccc4c(=O)n(C)n(C)c4c3)cc2)CC1` [Compound 250, 1,2-dimethyl-6-((4-(4-methylpiperidin-1-yl)phenyl)amino)-1,2-dihydro-3H-indazol-3-one] was tested. Which EC50 did it give?
Its EC50 is 0.1 to 100 nM.

Which EC50 does the source give for `Cn1c(=N)n(C)c2cc(Nc3ccc(N4CCC(C(F)(F)F)CC4)cc3)ccc21` [Compound 302, 2-imino-1,3-dimethyl-N-(4-(4-(trifluoromethyl)piperidin-1-yl)phenyl)-2,3-dihydro-1H-benzo[d]imidazol-5-amine] here?
The EC50 was 0.1 to 100 nM.

For `CC1CCN(c2ccc(Nc3ccc4c(c3)ncn4C)cc2)CC1` [Compound 285, 1-methyl-N-(4-(4-methylpiperidin-1-yl)phenyl)-1H-benzo[d]imidazol-5-amine], which EC50 is on record?
Its EC50 is 0.1 to 100 nM.

How did the EC50 turn out when `COc1cc(Nc2ccc3c(c2)n(C)c(=O)n3C)ccc1N1CCC(C(F)(F)F)CC1` [Compound 269, 5-((3-methoxy-4-(4-(trifluoromethyl)piperidin-1-yl)phenyl)amino)-1,3-dimethyl-1,3-dihydro-2H-benzo[d]imidazol-2-one] was run?
Its EC50 is 0.1 to 100 nM.

Which EC50 does the source give for `O=C1COc2cc(Nc3ccc(N4CCC(C(F)(F)F)CC4)cc3)ccc2N1` [Compound 85, 7-((4-(4-(trifluoromethyl)piperidin-1-yl)phenyl)amino)-2H-benzo[b][1,4]oxazin-3(4H)-one] here?
Its EC50 is 0.1 to 100 nM.

`Cc1cc(N2CCC(C)CC2)cc(C)c1Nc1ccc2c(c1)n(C)c(=O)n2C` [Compound 278, 5-((2,6-dimethyl-4-(4-methylpiperidin-1-yl)phenyl)amino)-1,3-dimethyl-1,3-dihydro-2H-benzo[d]imidazol-2-one] was tested. Which EC50 did it give?
The EC50 was 0.1 to 100 nM.

How did the EC50 turn out when `COc1c(Nc2ccc(N3CCC(C(F)(F)F)CC3)cc2)ccc2c1CN(C)C2=O` [Compound 301, 4-methoxy-2-methyl-5-((4-(4-(trifluoromethyl)piperidin-1-yl)phenyl)amino)isoindolin-1-one] was run?
The EC50 was 0.1 to 100 nM.

Which EC50 does the source give for `COCCN1C(=O)COc2cc(Nc3ccc(N4CCC(C(F)(F)F)CC4)cc3)ccc21` [Compound 11, 4-(2-methoxyethyl)-7-((4-(4-(trifluoromethyl)piperidin-1-yl)phenyl)amino)-2H-benzo[b][1,4]oxazin-3(4H)-one] here?
Its EC50 is 0.1 to 100 nM.

Same assay, conditions: Homo sapiens; HT-1080 cells treated with RSL3; 3-fold, 10-point dilution, 1.1 μM highest concentration; Table 3; read-out: EC50 (nM), ferroptosis inhibitory activity

For `COC(C)(C)C1CCN(c2ccc(Nc3ccc4c(c3)OCC(=O)N4)c(C)c2)CC1` [Compound 559, 7-((4-(4-(2-methoxypropan-2-yl)piperidin-1-yl)-2-methylphenyl)amino)-2H-benzo[b][1,4]oxazin-3(4H)-one], which EC50 is on record?
The EC50 was 0.1 to 100 nM.

How did the EC50 turn out when `CNCc1cnc2cc(Nc3ccc(N4CCC(C(F)(F)F)CC4)cc3C)ccn12` [Compound 609, N-(2-methyl-4-(4-(trifluoromethyl)piperidin-1-yl)phenyl)-3-((methylamino)methyl)imidazo[1,2-a]pyridin-7-amine] was run?
Its EC50 is 0.1 to 100 nM.

Which EC50 does the source give for `Cc1cc(N2CCC(C(F)(F)F)CC2)ccc1Nc1ccc2c(c1)OCC(O)C(=O)N2` (stereo not shown) [Compound 646, 3-hydroxy-8-((2-methyl-4-(4-(trifluoromethyl)piperidin-1-yl)phenyl)amino)-2,3-dihydrobenzo[b][1,4]oxazepin-4(5H)-one] here?
Its EC50 is 0.1 to 100 nM.

How did the EC50 turn out when `O=C1COc2cc(Nc3ccc(N4C5CCC4CC5)cc3)ccc2N1` [Compound 549, 7-((4-(7-azabicyclo[2.2.1]heptan-7-yl)phenyl)amino)-2H-benzo[b][1,4]oxazin-3(4H)-one] was run?
The EC50 was 0.1 to 100 nM.

Which EC50 does the source give for `Cc1nc(N2C[C@@H](C)O[C@@H](C)C2)ccc1Nc1ccc2c(c1)ncn2C` [Compound 605, N-(6-((2S,6R)-2,6-dimethylmorpholino)-2-methylpyridin-3-yl)-1-methyl-1H-benzo[d] imidazol-5-amine] here?
The EC50 was 0.1 to 100 nM.

With `Cc1cc(N2CC(OC(F)F)C2)ccc1Nc1ccc2c(c1)OCC(O)C(=O)N2` (stereo not shown) [Compound 658, 8-[4-[3-(difluoromethoxy)azetidin-1-yl]-2-methyl-anilino]-3-hydroxy-3,5-dihydro-2H-1,5-benzoxazepin-4-one] as the compound, how does the EC50 read?
Its EC50 is 0.1 to 100 nM.

With `COc1cc(Nc2cnc3c(c2)OCC(=O)N3)ccc1N1CCC(C(F)(F)F)CC1` [Compound 465, 7-((3-methoxy-4-(4-(trifluoromethyl)piperidin-1-yl)phenyl)amino)-2H-pyrido[3,2-b][1,4]oxazin-3(4H)-one] as the compound, how does the EC50 read?
The EC50 was 0.1 to 100 nM.

For `Cc1cc(N2CC(OC(C)C)C2)ccc1Nc1ccc2c(c1)OCC(=O)N2` [Compound 640, 7-((4-(3-isopropoxyazetidin-1-yl)-2-methylphenyl)amino)-2H-benzo[b][1,4]oxazin-3(4H)-one], which EC50 is on record?
Its EC50 is 0.1 to 100 nM.

Which EC50 does the source give for `O=C1CSc2cc(Nc3ccc(N4CCC(C(F)(F)F)CC4)cc3)ccc2N1` [Compound 582, 7-((4-(4-(trifluoromethyl)piperidin-1-yl)phenyl)amino)-2H-benzo[b][1,4]thiazin-3(4H)-one] here?
The EC50 was 0.1 to 100 nM.

Which EC50 does the source give for `COC1CN(c2ccc(Nc3ccc4c(c3)OCC(=O)N4)c(C)c2)C1` [Compound 578, 7-((4-(3-methoxyazetidin-1-yl)-2-methylphenyl)amino)-2H-benzo[b][1,4]oxazin-3(4H)-one] here?
The EC50 was 0.1 to 100 nM.

Which EC50 does the source give for `Cc1cc(N2CCC2)ccc1Nc1ccc2c(c1)OCC(=O)N2` [Compound 585, 7-((4-(azetidin-1-yl)-2-methylphenyl)amino)-2H-benzo[b][1,4]oxazin-3(4H)-one] here?
The EC50 was 0.1 to 100 nM.

With `Cc1cc(N2CC(OC(F)(F)F)C2)ccc1Nc1ccc2c(c1)OCC(O)C(=O)N2` (stereo not shown) [Compound 657, 3-hydroxy-8-[2-methyl-4-[3-(trifluoromethoxy)azetidin-1-yl]anilino]-3,5-dihydro-2H-1,5-benzoxazepin-4-one] as the compound, how does the EC50 read?
Its EC50 is 0.1 to 100 nM.

For `Cc1cc(N2CC(OC(F)F)C2)ccc1Nc1ccc2c(c1)OCC(=O)N2` [Compound 652, 7-[4-[3-(difluoromethoxy)azetidin-1-yl]-2-methyl-anilino]-4H-1,4-benzoxazin-3-one], which EC50 is on record?
The EC50 was 0.1 to 100 nM.

For `Cc1cc(N2CCC(C(F)(F)F)CC2)ccc1Nc1ccc2c(c1)SCC(=O)N2` [Compound 593, 7-((2-methyl-4-(4-(trifluoromethyl)piperidin-1-yl)phenyl)amino)-2H-benzo[b][1,4]thiazin-3(4H)-one], which EC50 is on record?
Its EC50 is 0.1 to 100 nM.
